The values that follow come from US10639298B2 (Biohaven Pharmaceutical Holding Company Ltd., priority 2015, dated 2020).

A short description of data set [1]: Rat pharmacokinetic studies of prodrug and released riluzole (IV or oral). The format is in vivo, Sprague-Dawley rats. Particulars: for clearance: read-out: Compound of the disclosure Cl (converted); for Vd: read-out: Compound of the disclosure Vss. On the procedure: Rat Pharmacokinetic Studies of the Compounds of the Disclosure:
Blood samples were collected at pre-determined time points including a 0 h time point and usually between 7 and 8 additional time points not exceeding a 24 h period.
Plasma samples were extracted and analyzed using the methods described in Plasma Sample Extraction and Analysis. All data are expressed as ng/mL of the free base. Samples that were below the limit of quantification (0.5 ng/mL) were not used in the calculation of averages.
Pharmacokinetic parameters were calculated from the time course of the plasmaconcentrations. Pharmacokinetic parameters were determined with Phoenix Winnonlin (v6.3) software using a non-compartmental model. The maximum plasma concentration (Cmax) and time to the maximum plasma concentration (Tmax) of the compound of the disclosure were observed from the data. The area under the concentration-time curve (AUC) of the compound of the disclosure was calculated using the trapezoidal formula with calculation to the last quantifiable data point, and to infinity if applicable. Plasma half-life (t½) was calculated from 0.693/slope of the terminal elimination phase. Mean residence time, MRT, was calculated by dividing the area under the moment curve (AUMC) by the AUC. Any samples below the limit of quantitation (0.5 ng/mL) were treated as zero for pharmacokinetic data analysis.
Plasma Sample Extraction and Analysis:
Analytical stock solutions (1.00 mg/mL of the free compound of the disclosure) were prepared in DMSO. Standards were prepared in diluted matrix containing 1 part 10% formic acid and 9 parts Sprague-Dawley rat plasma containing sodium heparin as the anticoagulant (pre-diluted with 1 part of 0.5M citric acid and 9 parts whole blood). Working solutions were prepared in 50:50 acetonitrile:water. Working solutions were then added to plasma to make calibration standards to final concentrations of 1000, 500, 100, 50, 10, 5, 1, and 0.5 ng/mL. Standards contained both the test article and riluzole. Standards were treated identically to the study samples.
Plasma samples were extracted via acetonitrile precipitation on a Tomtec Quadra 96-Model 320 liquid handling system in a 96-well plate format.

For the next data set, the system named is Melanoma C8161 cells. Description: Inhibition of human melanoma cell xenograft growth. As to conditions: P<0.01 (t test). The format is in vivo, nude mice. On the procedure: Melanoma C8161 cells were inoculated s.c. into nude mice at […]. […] Mice were treated every day for 21 days, and tumor sizes were measured twice weekly with a Vernier caliper.

A short description of data set [2]: PK in fasted male mice, prodrug and released riluzole (IV, PO). Particulars: mouse, in vivo; for AUC(0-t): read-out: Prodrug AUClast (Mean).
In data set [3] the test system is Stage III and IV melanoma. Particulars: 14 days of treatment, cited from earlier work.
The mark [4] stands for this setting: fasted male Sprague Dawley rats, IV, prodrug dose 2.8 mg/Kg.
Setting [5] is: fasted male Sprague Dawley rats, PO 14.6 mg/kg.
Setting [6] is: rat, plasma, fasted male Sprague Dawley rats, IV, prodrug dose 2.8 mg/Kg, read-out: Compound of the disclosure AUClast.
The mark [7] stands for this setting: rat, plasma, fasted male Sprague Dawley rats, IV, prodrug dose 2.8 mg/Kg.
[8] abbreviates: rat, plasma, fasted male Sprague Dawley rats, PO 5 mg/kg.

In general, Cmax refers to the highest concentration seen after dosing. A word on the Tmax: it is the time from dosing to the highest level.

Where two headings read alike, the source gives them in different places.

Consider `CN(CC(=O)Nc1nc2ccc(OC(F)(F)F)cc2s1)C(=O)CNC(C)(C)C` [Example 125, 2-(tert-butylamino)-N-methyl-N-(2-oxo-2-((6-(trifluoromethoxy)benzo[d]thiazol-2-yl)amino)ethyl)acetamide], for which, in data set [1] (setting [4]), the “Compound of the disclosure AUClast” value stood at 1526 ng·h/mL, the “Compound of the disclosure Cl” value was 29.7 mL/min/kg and the “Compound of the disclosure Vss” value was found to be 3.57 L/kg. Moreover, the “Compound of the disclosure t1/2” value in data set [1] (fasted male Sprague Dawley rats, IV, prodrug dose 2.8 mg/Kg, 2.8 mg/kg) stood at 115 min. Further, in data set [1] (setting [5]), the “Prodrug AUClast (Mean)” value stood at 2259 ng·h/mL, the “Prodrug Cmax (Mean)” value turned out to be 213 ng/mL, the “Prodrug t1/2 (Mean)” value worked out at 228 min and the “Prodrug tmax (Mean)” value came out at 108 min. In addition, the “Half life on conversion to Riluzole” value in data set [1] (intravenous administration) is recorded as “moderate to long half life”. In data set [1] (oral administration), the “Half life on conversion to Riluzole” value is on record as “long half life” and the “Oral bioavailability” value is reported as “high oral bioavailability”. In addition, the AUC(0-t) in data set [1] (setting [6]) was determined as 1600 ng·h/mL. Moreover, in data set [1] (setting [7]), the clearance is 27.8 mL/min/kg and the Vd was 3.51 L/kg. Moreover, the “Tumor volume vs untreated or vehicle-treated controls” value in the data set on Melanoma C8161 cells (4.9 mg/kg (threefold lower in molar terms) p.o. gavage every day for 21 days) is “significant reduction in tumor volume”. For the same molecule, the “Tumor volume vs untreated or vehicle-treated controls” value in the data set on Melanoma C8161 cells (14.6 mg/kg (equimolar to riluzole) p.o. gavage every day for 21 days) is “significant reduction in tumor volume”.
Consider `CN(CC(=O)Nc1nc2ccc(OC(F)(F)F)cc2s1)C(=O)CNC(=O)CN` [Example 204, 2-Amino-N-{[methyl({[6-(trifluoromethoxy)-1,3-benzothiazol-2-yl]carbamoyl}methyl)carbamoyl]methyl}acetamide], for which the AUC(0-t) turned out to be 232 ng·h/mL in data set [1] (setting [6]); 0.9 ng·h/mL in data set [1] (rat, plasma, fasted male Sprague Dawley rats, PO 5 mg/kg, read-out: Prodrug AUClast (Mean)); 532 ng·h/mL in data set [2] (IV 1 mg/kg); 3.85 ng·h/mL in data set [2] (PO 5 mg/kg). For the same molecule, the clearance was 220 mL/min/kg in data set [1] (setting [7]) and 32.3 mL/min/kg in data set [2] (IV 1 mg/kg, read-out: Prodrug CL (Mean) (converted)). In addition, the Vd in data set [1] (setting [7]) came out at 2.47 L/kg; in data set [2] (IV 1 mg/kg, read-out: Prodrug Vss (Mean)), 0.46 L/kg. The half-life in data set [1] (rat, plasma, fasted male Sprague Dawley rats, IV, prodrug dose 2.8 mg/Kg, read-out: Compound of the disclosure t1/2 (converted)) is 14.2 min; in data set [2] (IV 1 mg/kg, read-out: Prodrug T1/2 (Mean) (converted)) it was 17.4 min. Also, the Cmax in data set [1] (setting [8]) worked out at 1.84 ng/mL; in data set [2] (PO 5 mg/kg), 4.71 ng/mL. Besides, the Tmax in data set [1] (setting [8]) stood at 16.8 min; in data set [2] (PO 5 mg/kg) it was 19.8 min. The AUC(0-inf) in data set [2] (IV 1 mg/kg, read-out: Prodrug AUCinf (Mean)) came to 533 ng·h/mL.
Consider `Nc1nc2ccc(OC(F)(F)F)cc2s1` [riluzole], for which the entries for the “Patients with clinical or radiologic evidence of tumor response” value in data set [3] (listed as Riluzole) and in data set [3] were “four of 12” and “four of twelve”, respectively.
